Reference: BindingDB's records for PubMed 9400006 (Emory University, 1997)

How the values were obtained:
[1] = biological target: T1, 5-hydroxytryptamine receptor 1A (Rattus norvegicus, UniProt P19327)
T1 sequence (P19327 whole entry): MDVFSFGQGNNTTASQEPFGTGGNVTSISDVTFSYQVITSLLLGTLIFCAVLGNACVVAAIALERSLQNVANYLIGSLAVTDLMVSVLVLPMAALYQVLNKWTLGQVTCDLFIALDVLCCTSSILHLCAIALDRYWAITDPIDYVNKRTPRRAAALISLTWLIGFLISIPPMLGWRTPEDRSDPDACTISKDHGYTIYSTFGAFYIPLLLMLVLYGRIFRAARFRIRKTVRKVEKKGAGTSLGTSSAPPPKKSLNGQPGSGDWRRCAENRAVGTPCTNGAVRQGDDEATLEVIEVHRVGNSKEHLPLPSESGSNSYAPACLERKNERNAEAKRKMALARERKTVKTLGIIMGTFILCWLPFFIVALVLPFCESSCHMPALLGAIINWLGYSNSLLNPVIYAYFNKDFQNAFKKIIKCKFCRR

[2] = biological target: T2, Muscarinic acetylcholine receptor M2 (Rattus norvegicus, UniProt P10980)
T2 sequence (P10980 whole entry): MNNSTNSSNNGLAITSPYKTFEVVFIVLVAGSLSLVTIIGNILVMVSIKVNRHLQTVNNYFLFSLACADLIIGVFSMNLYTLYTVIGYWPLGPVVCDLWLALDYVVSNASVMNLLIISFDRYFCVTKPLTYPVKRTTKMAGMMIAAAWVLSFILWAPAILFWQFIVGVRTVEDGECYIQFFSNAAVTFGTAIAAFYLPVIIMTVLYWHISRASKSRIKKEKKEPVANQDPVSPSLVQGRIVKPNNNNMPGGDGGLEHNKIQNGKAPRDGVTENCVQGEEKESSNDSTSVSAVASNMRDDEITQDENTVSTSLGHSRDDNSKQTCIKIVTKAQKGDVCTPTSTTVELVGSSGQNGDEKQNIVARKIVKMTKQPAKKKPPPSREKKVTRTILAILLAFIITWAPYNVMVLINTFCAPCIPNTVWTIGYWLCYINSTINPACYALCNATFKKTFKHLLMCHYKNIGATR

[3] = biological target: T3, Alpha-2A adrenergic receptor (Homo sapiens, UniProt P08913)
T3 sequence (P08913 whole entry): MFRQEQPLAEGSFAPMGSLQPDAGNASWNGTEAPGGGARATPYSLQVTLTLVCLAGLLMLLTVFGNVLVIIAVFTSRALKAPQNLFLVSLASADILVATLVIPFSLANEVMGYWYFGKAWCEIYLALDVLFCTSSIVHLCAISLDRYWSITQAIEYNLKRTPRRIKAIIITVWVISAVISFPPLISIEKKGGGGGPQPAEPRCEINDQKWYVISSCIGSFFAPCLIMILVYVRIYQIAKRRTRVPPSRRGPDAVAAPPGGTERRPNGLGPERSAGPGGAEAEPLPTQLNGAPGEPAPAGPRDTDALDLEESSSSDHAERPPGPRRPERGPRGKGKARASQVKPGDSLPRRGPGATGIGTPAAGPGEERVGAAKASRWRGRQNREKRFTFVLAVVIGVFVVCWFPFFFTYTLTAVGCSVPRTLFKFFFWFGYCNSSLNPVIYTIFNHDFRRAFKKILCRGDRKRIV

[4] = biological target: Sodium-dependent serotonin transporter (Rattus norvegicus, UniProt P31652)
Sequence of Sodium-dependent serotonin transporter (P31652 whole entry): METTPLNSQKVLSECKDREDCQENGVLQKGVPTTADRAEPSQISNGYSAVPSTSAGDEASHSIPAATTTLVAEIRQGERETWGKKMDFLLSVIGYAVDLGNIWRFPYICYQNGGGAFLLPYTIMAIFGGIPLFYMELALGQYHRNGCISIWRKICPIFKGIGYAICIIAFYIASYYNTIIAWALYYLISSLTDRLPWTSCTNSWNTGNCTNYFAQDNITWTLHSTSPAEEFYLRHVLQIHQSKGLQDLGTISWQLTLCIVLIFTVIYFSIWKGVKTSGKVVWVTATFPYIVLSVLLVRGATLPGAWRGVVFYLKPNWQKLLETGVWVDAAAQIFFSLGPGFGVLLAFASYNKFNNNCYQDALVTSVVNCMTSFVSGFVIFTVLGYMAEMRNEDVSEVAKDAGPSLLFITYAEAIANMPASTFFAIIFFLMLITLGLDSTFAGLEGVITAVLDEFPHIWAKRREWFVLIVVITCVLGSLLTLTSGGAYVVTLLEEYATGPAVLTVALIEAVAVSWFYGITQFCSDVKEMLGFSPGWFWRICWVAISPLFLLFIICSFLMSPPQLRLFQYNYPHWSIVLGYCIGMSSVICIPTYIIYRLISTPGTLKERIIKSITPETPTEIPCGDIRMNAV

SMILES	Ki [1]	Ki [2]	Ki [3]	Ki [4]
CN(C)CCC=C1c2ccccc2CCc2ccccc21	129 nM	2.6 nM	114 nM	
O=c1[nH]n(CCCN2CCN(c3cccc(Cl)c3)CC2)c(=O)n1CCOc1ccccc1 [Triazoledione]	1370 nM	> 10000 nM	1920 nM	> 10000 nM
CC(O)c1nn(CCCN2CCN(c3ccc(Cl)cc3)CC2)c(=O)n1CCOc1ccccc1 (stereo unspecified) [NSC_127096]	56 nM	> 10000 nM	63 nM	612 nM
CNCCCN1c2ccccc2CCc2ccccc21 [Desmethylimipramine]		37 nM		
CCc1nn(CCCN2CCN(c3cccc(Cl)c3)CC2)c(=O)n1CCOc1ccccc1 [2-{3-[4-(3-chlorophenyl)piperazin-1-yl]propyl}-5-ethyl-4-(2-phenoxyethyl)-2,4-dihydro-3H-1,2,4-triazol-3-one]	52 nM	4570 nM		
CN[C@@H]1CC[C@@H](c2ccc(Cl)c(Cl)c2)c2ccccc21 [[4-(3,4-Dichloro-phenyl)-1,2,3,4-tetrahydro-naphthalen-1-yl]-methyl-amine]	3660 nM	232 nM		
COc1ccc(C(CN(C)C)C2(O)CCCCC2)cc1 (stereo unspecified) [NSC_62923]	> 10000 nM	> 10000 nM	> 10000 nM	
Clc1cccc(N2CCNCC2)c1 [mCPP]	16 nM	4700 nM	112 nM	218 nM
O=c1n(CCCN2CCN(c3cccc(Cl)c3)CC2)nc2ccccn12 [2-{3-[4-(3-chlorophenyl)piperazin-1-yl]propyl}[1,2,4]triazolo[4,3-a]pyridin-3(2H)-one]		> 10000 nM		
Fc1ccc([C@@H]2CCNC[C@H]2COc2ccc3c(c2)OCO3)cc1 [PAROXETINE]	> 10000 nM	42 nM		
